Patent publication US8436013B2, “Compounds and methods for treatment of alpha-1 antitrypsin deficiency” (University of Florida Research Foundation, Inc., priority 2007, dated 2013)
“Also recorded” adds a separate entry of the source.

Tests used:
ATZ [1] = target: T1, ATZ (Homo sapiens, UniProt P01009, E366K); assay: ATZ secretion from CHO-ATZ cells, ELISA of culture supernatant; type: cell-based; settings: various concentrations, supernatants at 24, 48 and 72 hours, DMSO controls
T1 construct: expressed in transfected cells; host or cells: CHO-ATZ cells
T1 sequence (P01009 25-418 E366K): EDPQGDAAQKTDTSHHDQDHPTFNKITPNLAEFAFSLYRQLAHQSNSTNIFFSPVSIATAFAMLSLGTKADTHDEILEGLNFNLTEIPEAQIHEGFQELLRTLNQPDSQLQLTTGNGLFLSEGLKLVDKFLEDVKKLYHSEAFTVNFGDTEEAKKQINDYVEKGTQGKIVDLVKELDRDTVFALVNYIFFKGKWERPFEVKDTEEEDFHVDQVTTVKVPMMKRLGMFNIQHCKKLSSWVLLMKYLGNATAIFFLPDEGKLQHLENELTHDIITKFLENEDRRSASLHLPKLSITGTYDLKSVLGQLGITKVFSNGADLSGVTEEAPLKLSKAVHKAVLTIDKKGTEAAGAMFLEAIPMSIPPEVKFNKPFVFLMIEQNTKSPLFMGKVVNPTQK
Method: FIG. 3. Effects of small molecule compounds on AAT secretion in cells. The CHO-ATZ cells were treated with various concentrations of NCI compounds. The culture supernatants were harvested for ELISA analysis. The data represent the means from 4-separate experiments.
Compounds listed in Table 1 were obtained from NCI/DTP. The compounds were dissolved in DMSO. As the first step, the compounds were tested in CHO-ATZ cells. Various concentrations of the compounds were added to the cells. The supernatants were harvested at time points: 24, 48, and 72 hours. The samples were then used for ELISA assay for human AAT.
(§1) Compounds were used to treat CHO-ATZ cells at various concentrations. Cell supernatant was harvested at different time points. ELISA test was performed to determine the level of ATZ in the supernatant. The cells were also harvested for Western blot analysis.

ATZ [2] = target: T1, ATZ; assay: ATZ accumulation in treated cells, Western blot; type: cell-based; settings: cells treated with polymer inhibitor vs controls
Method: FIG. 4. Polymer inhibitor (1,9-decadiene) reduces the ATZ accumulation in cells. Cells were treated with polymer inhibitor and harvested for Western blot analysis.
as §1
We then examined these two potentially effective inhibitors. The cells were treated by the inhibitors, followed by protein extraction and Western blot analysis.

ATZ [3] = target: T1, ATZ; assay: Pulse-chase (35S labelling, anti-AAT immunoprecipitation) ATZ secretion in CHO cells; type: cell-based; settings: CHO cells labeled with 35S, vs DMSO control
From the text: FIG. 5. Polymer inhibitor (1,9-decadiene) increases ATZ secretion. The cells were labeled with ^35S and harvested at the indicated time points. The protein extracts were immunoprecipitated using anti-AAT antibody. The immunocomplexes were then resolved in PAGE gel. The intensity of AAT bands were then quantified and calculated. FIG. 5A is the cells treated with DMSO control; FIG. 5B represents result of cells with polymer inhibitor treatment. […] A non-denaturing gel was used to analyze cell extracts from compound-treated CHO ATZ cells.

[4] = system: transgenic mice carrying a human ATZ transgene; assay: Serum AAT level (ELISA) in transgenic mice carrying a human ATZ transgene; type: in vivo; settings: treated for two weeks
Method: FIG. 6. Compounds according to the invention can increase AAT secretion in transgenic animals. The animals were treated for two weeks. Serum AAT levels were determined by ELISA assay.
Two test compounds were administered to transgenic mice (four animals per group, including control) carrying a human ATZ transgene to determine whether the compounds are capable of increasing AAT secretion in a transgenic animal model. The animals were treated for two weeks. Serum AAT levels were determined by ELISA assay.

AAT-Z transgenic mice = assay: Liver histology (PASD staining, inflammation) in AAT-Z transgenic mice; type: in vivo; settings: i.p. injection for 7 days, vs control
Method: FIG. 7. Compounds according to the invention decrease AAT accumulation and reduce inflammation in liver cells compared to control. AAT-Z transgenic mice were treated by i.p. injection of a compound or control for 7 days, followed by collection of liver tissue.
Compounds according to the invention decrease AAT accumulation and reduce inflammation in liver cells compared to control. AAT-Z transgenic mice were treated by i.p. injection of a compound or control for 7 days, followed by collection of liver tissue.

[5] = system: human ATZ transgenic model; settings: cited from earlier work

C=CCCCCCCC=C [1,9-decadiene]
ATZ secretion (ELISA of supernatant) (ATZ [1]): effectively enhance ATZ secretion in the cells | ATZ secretion (ELISA of supernatant) (ATZ [1]; listed as NSC 102789): appear to be effective for inhibition of ATZ secretion | ATZ accumulation in cells (Western blot) (ATZ [2]): reduced amount of ATZ; also recorded: effectively reduce the accumulation of ATZ in cells | ATZ secretion (pulse-chase) (ATZ [3]): increases the ATZ secretion in the supernatant | AAT serum level enhancement [4]: more than two-fold | AAT accumulation in hepatocytes (PASD staining) (AAT-Z transgenic mice): decrease AAT accumulation in hepatocytes | liver tissue inflammation (AAT-Z transgenic mice): reduced live tissue inflammation

O=C(O)/C=C/c1cc2c(cc1[N+](=O)[O-])OCO2 [3,4-methylenedioxy-6-nitrocinnamic acid]
ATZ secretion (ELISA of supernatant) (ATZ [1]): effectively enhance ATZ secretion in the cells | ATZ secretion (ELISA of supernatant) (ATZ [1]; listed as NSC 21034): appear to be effective for inhibition of ATZ secretion | AAT serum level enhancement [4]: more than two-fold | AAT accumulation in hepatocytes (PASD staining) (AAT-Z transgenic mice): decrease AAT accumulation in hepatocytes | liver tissue inflammation (AAT-Z transgenic mice): reduced live tissue inflammation

O=C(O)CCCc1ccccc1 [4-phenylbutyric acid]
blood levels of AAT [5]: can increase blood levels of AAT
